Results published in patent US20120122797A1, “PEPTIDIC COMPOUND AND USE OF SAME” (KEIO UNIVERSITY, priority 2009, published 2012).
In brackets after ≈: the same amount, converted by molar mass. Numbered stars: 1 amine (or outer) side, 2 acyl side, 3 side chain; on linkers, the order of the positions; unused ones are H or OH. Square brackets hold non-standard residues; d marks the D form. Peptide text beside a SMILES is read from it. * marks the point of attachment. ξ: configuration not given here. X1 = C[C@H]1C[C@@H](C2=N[C@](C)(C(=O)[*:2])CS2)N([*:1])C1; ξNMeTyr(3-Br) = CNC(Cc1ccc(O)c(Br)c1)C(=O)O; NMeF = CN[C@@H](Cc1ccccc1)C(=O)O; Piv = CC(C)(C)C(=O)*; X2 = CCC(=O)C1CCCN1*

Experiments:
Type in all cases: cell-based
phosphorylation of AKT = assay: protein kinase inhibition: Western blot of phosphorylated AKT in PDGF-stimulated NRK cells; details: treated 3 hours, PDGF stimulation, 10, 1 and 0.1 μM
Protocol: (§1) NRK cells were seeded in a 96-well plate, and cultured for 3 days. A sample solution was added thereto and treated for 3 hours, followed by PDGF stimulation. Electrophoretic samples were prepared to conduct Western blot using antibodies against phosphorylated signal transduction molecules (AKT, ERK, PKD, PLCγ1, and S6 ribosomal protein) and phosphotyrosine. The effect on the intracellular signal transduction from a PDGF receptor was evaluated. […] The eIF4E, 4E-BP-1, and histone H3 bands confirmed that equal amounts of proteins subjected to electrophoresis.
(§2) Bisebromoamide (1) was added in such a manner that the final concentration became 0.01, 0.1, 1, and 10 μM, in order to determine the presence or absence of inhibition, and the inhibition pattern thereof. The effective inhibitory concentration against each signal transduction molecule activity was investigated.

HeLa S3 cell = assay: growth inhibitory activity against HeLa S3 cell; details: Homo sapiens
Source text: The present inventors conducted research on the derivatives of the compound to complete the present invention.
The cyanobacterium Lyngbya sp. collected in Okinawa Prefecture was extracted with MeOH, and partitioned between H2O and AcOEt. The resulting AcOEt layer was further partitioned between 90% MeOH and n-hexane. The 90% MeOH layer thus obtained was separated and purified with various chromatographies using the growth inhibitory activity against tumor cells as an index. As a result, Bisebromoamide (1), which is a novel peptide, was isolated.
The planar structure of the compound was primarily determined by various two-dimensional NMR spectral analyses. […] Subsequently, in order to determine the absolute configuration of Bisebromoamide (1) including eight chiral centers, acid hydrolysis was conducted using 9 M HCl. The resulting acid hydrolysate was fractionated by HPLC, obtaining fractions of Leu, N-Me-Tyr, 4-Me-Pro, N-Me-Phe, Opp, and that of a mixture of Ala and 2-methylcystine. […] Furthermore, 4-Me-Pro, Opp, Ala, and 2-methylcystine were subjected to derivatization using Marfey's reagent, and then analyzed by reversed phase HPLC. […] However, it also turned out that the Opp and 4-Me-Pro completely epimerized at a-position during the acid hydrolysis. Therefore, we reduced the ketone of Opp using NaBH4 before conducting the acid hydrolysis. […]

phosphorylation of PLCγ1 = assay: protein kinase inhibition: Western blot of phosphorylated PLCγ1 in PDGF-stimulated NRK cells; details: treated 3 hours, PDGF stimulation, 10, 1 and 0.1 μM
Protocol: as §1, §2

phosphorylation of ERK = assay: protein kinase inhibition: Western blot of phosphorylated ERK in PDGF-stimulated NRK cells
Protocol: as §1, §2

[1] = test system: phosphorylation of PKD/PKC; assay: protein kinase inhibition: Western blot of phosphorylated PKD/PKC in PDGF-stimulated NRK cells; details: treated 3 hours, PDGF stimulation, 10, 1 and 0.1 μM
Protocol: as §1, §2

[2] = test system: 39 types of human cancer cells; assay: growth inhibitory activity screening using 39 types of human cancer cells (sulforhodamine B colorimetric assay); details: 48 h, 39 human cancer cell lines, cultured for 2 days, read-out: average GI50 value across all of the cell lines tested
Protocol: Bisebromoamide (1) is a strong cytotoxic substance containing a high degree of D-amino acids and unusual amino acids. In particular, compounds having a 4-Me-Pro, N-Me-3-bromo-Tyr, and N-pivalamide moiety linking to 4-methylthiazoline are very rare, and the 2-Opp unit is unprecedented in natural products. Bisebromoamide (1) was subjected to screening using 39 types of human cancer cells. […] The average GI50 value across all of the cell lines tested was 40 nM.
Cancer cells were seeded in a 96-well plate. A sample solution was added thereto on the following day, and cultured for 2 days. Cell growth was evaluated by sulforhodamine B colorimetric assay. The 39 total cancer cell lines that were tested included 7 lung cancer (Lu) lines, 6 stomach cancer (St) lines, 5 colon cancer (Co) lines, 6 brain neoplasm (CNS) lines, 5 breast cancer (Br) lines, 2 renal cancer (Re) lines, 2 prostatic cancer (xPg) lines, and 1 melanoma (Me) line. The effective concentration deviation of each cancer cell stock from the mean effective drug concentration of the 39 cancer cell lines measured was calculated and expressed as the fingerprint.

[3] = test system: phosphorylation of S6 ribosomal protein (S6R); assay: protein kinase inhibition: Western blot of phosphorylated S6 ribosomal protein in PDGF-stimulated NRK cells; details: treated 3 hours, PDGF stimulation, 10, 1 and 0.1 μM
Protocol: as §1, §2

cancer cell growth = assay: inhibitory activity of derivatives against cancer cell growth
Source text: The alcohol and hydrazone were examined for their inhibitory activities against cancer cell growth and phosphorylation of ERK.

Compound	effect on phosphorylation of AKT (phosphorylation of AKT)	IC50 (HeLa S3 cell)	effect on phosphorylation of PLCγ1 (phosphorylation of PLCγ1)	inhibition of phosphorylation of ERK (phosphorylation of ERK; NRK cells, treated 3 hours, PDGF stimulation, 10, 1 and 0.1 μM)	effect on phosphorylation of PKD/PKC [1]	GI50 [2]	effect on phosphorylation of S6 ribosomal protein (S6R) [3]	inhibitory activity against phosphorylation of ERK, compared with Bisebromoamide (1) (phosphorylation of ERK)	inhibitory activity against cancer cell growth, compared with Bisebromoamide (1) (cancer cell growth)
CCC(=O)C1CCCN1C(=O)[C@H](Cc1ccccc1)N(C)C(=O)[C@@H](CC(C)C)NC(=O)[C@]1(C)CSC([C@@H]2C[C@H](C)CN2C(=O)C(Cc2ccc(O)c(Br)c2)N(C)C(=O)[C@H](C)NC(=O)C(C)(C)C)=N1 (stereo partly drawn) [Bisebromoamide (1), Bisebromoamide] (Piv-A[ξNMeTyr(3-Br)][X1][dL][NMeF]-X2)	no effect	0.04 µg/mL (≈ 0.0391 µM)	no effect	selectively inhibited	no effect	40 nM	no effect	–	–
CCO [alcohol]	–	–	–	–	–	–	–	Results similar to those for Bisebromoamide (1)	Results similar to those for Bisebromoamide (1)
